Assay results: patent US5534260A, “Percutaneous drug delivery system” (priority 1994, dated 1996)
Values joined by “and” are separate entries in the source; they are usually repeats but may differ in a detail not shown here. Equal values may be shown once. “Also recorded” adds a separate entry of the source. Read-outs that look alike come from different tables or passages of the source.

How the values were obtained:
[1] = Effect of non-enzyme components in admixture with papain on penetration of 14C-TEAB (Example IV); details: 14C-TEAB through pretreated skin (n = 1 for components alone, n = 2 combinations, n = 3 papain 0.0465 mg/ml 24 hours)
[2] = Effect of pH on drug penetration through hairless mouse skin pretreated with papain (Example V B); format: in vitro ADME
Description: B. Effect of pH on drug penetration through hairless mouse
skin Pretreated with sigma papain of concentration 0.093

[3] = Effect of pH on drug penetration through normal untreated hairless mouse skin (Example V A); format: in vitro ADME; details: for P (permeability): mouse
[4] = Fourier Transform Infrared spectroscopy of stratum corneum; set-up: species or system mouse; details: for Absorbance in protein areas, peak position: Table I
Method: A. Comparisons of normal stratum corneum (from mouse skin) to stratum corneum treated with a 0.09% concentration of papain for 24 hours was performed using Fourier Transform Infrared spectroscopy (FTIR). […] It is postulated that a shift from a random form of protein to the more organized beta sheet structure occurs. The alpha-helix structures of skin protein could be fractionated, uncoiled, or both.
A comparison of symmetric and asymmetric CH stretch bands was then made. These two bands represent lipid structure and would show any changes in the stratum corneum lipids caused by the papain.
B. Azone™ was tested as a permeation enhancer with and without the presence of papain.

in vitro = details: mouse
[5] = Penetration of polypeptides through papain-pretreated mouse skin, SDS-PAGE; format: in vitro ADME; details: for fragmentation of diffused polypeptide: diffused through papain treated skin, SDS-PAGE
Description: After papain skin treatment pursuant to Example III.1 above, polypeptides were diffused through the pretreated mouse skin using the same concentration and pH values for each test. Pure buffer solution was also diffused through the pretreated skin of the mouse to determine if any endogenous proteins diffused into the diffusate.
Comparisons of solutions of non-diffused polypeptides, diffused polypeptides and diffused buffer solutions were made using gel electrophoresis. The system used for these determinations was sodium dodecyl sulfate polyacrylamide gel electrophoresis (SDS-PAGE), a procedure well-known in the art. These comparisons determined if fragmentation of the diffused polypeptide molecules occurred.
A series of polypeptides of various molecular weights were studied.

[6] = mouse
[7] = pH 5.9, sigma papain 0.093 mg/ml for 24 hours
[8] = pH 6.6, sigma papain 0.093 mg/ml for 24 hours
[9] = pH 7.4, sigma papain 0.093 mg/ml for 24 hours
[10] = pH 8.0, sigma papain 0.093 mg/ml for 24 hours
[11] = TEAB, pretreated with papain 0.010 mg/0.108 ml (0.093 mg/ml)
[12] = TEAB, pretreated with papain 0.170 mg/0.602 ml (0.278 mg/ml)
[13] = TEAB, pretreated with papain 0.170 mg/0.200 ml ([…])

CCCCCCCC/C=C\CCCCCCCCO [10% oleyl alcohol, oleyl alcohol]
J (flux) [1]: 1.49 × 10^-4 mg cm^-2 s^-1

CC(=O)OCC[N+](C)(C)C.[Cl-] [Acetylcholine Chloride, acetylcholine chloride]
E (enhancement) [2, 7]: 103.09
J (flux) [2, 7]: 6.00 × 10^-4 mg/cm^2 /sec
P (permeability) [2, 7]: 3 ×10⁻⁶ cm/s
E (enhancement) [2, 8]: 149.23
J (flux) [2, 8]: 7.77 × 10^-4 mg/cm^2 /sec
P (permeability) [2, 8]: 3.88 ×10⁻⁶ cm/s
E (enhancement) [2, 9]: 100.94
J (flux) [2, 9]: 6.46 × 10^-4 mg/cm^2 /sec
P (permeability) [2, 9]: 3.23 ×10⁻⁶ cm/s
E (enhancement) [2, 10]: 67.38
J (flux) [2, 10]: 6.28 × 10^-4 mg/cm^2 /sec
P (permeability) [2, 10]: 3.14 ×10⁻⁶ cm/s
J (flux) ([3]; pH 5.9): 5.83 × 10^-6 mg/cm^2 /sec
J (flux) ([3]; pH 6.6): 5.21 × 10^-6 mg/cm^2 /sec
J (flux) ([3]; pH 7.4): 6.41 × 10^-6 mg/cm^2 /sec
J (flux) ([3]; pH 8.0): 9.32 × 10^-6 mg/cm^2 /sec

C=CCc1ccccc1OCC(O)CNC(C)C (stereo not shown) [Alprenolol]
P (permeability) ([2]; mouse, pH 5.9): 1.2 ×10⁻⁶ cm/s
P (permeability) ([2]; mouse, pH 6.6): 1.33 ×10⁻⁶ cm/s
P (permeability) ([2]; mouse, pH 7.4): 1.32 ×10⁻⁶ cm/s
P (permeability) ([2]; mouse, pH 8): 1.65 ×10⁻⁶ cm/s
E (enhancement) [2, 7]: 22.39
E (enhancement) [2, 8]: 17.18
E (enhancement) [2, 9]: 7.17
E (enhancement) [2, 10]: 7.86
P (permeability) ([3]; pH 5.9): 0.0536 ×10⁻⁶ cm/s
P (permeability) ([3]; pH 7.4): 0.184 ×10⁻⁶ cm/s
P (permeability) ([3]; pH 8): 0.21 ×10⁻⁶ cm/s
J (flux) ([3]; pH 5.9): 5.36 × 10^-7 mg/cm^2 /sec
J (flux) ([3]; pH 6.6): 7.74 × 10^-7 mg/cm^2 /sec
J (flux) ([3]; pH 7.4): 1.84 × 10^-6 mg/cm^2 /sec
J (flux) ([3]; pH 8): 2.10 × 10^-6 mg/cm^2 /sec

CCCCCCCCCCCCN1CCCCCC1=O [Azone, 1-n-dodecylazacycloheptan-2-one]
Absorbance in protein areas, peak position ([4]; untreated SC 1244): 1244.5 cm⁻¹
Absorbance in protein areas, peak position ([4]; untreated SC 1267): 1267.4 cm⁻¹
Absorbance in protein areas, peak position ([4]; untreated SC 1295): 1296.6 cm⁻¹
Absorbance in protein areas, peak position ([4]; untreated SC 1400.5): 1402 cm⁻¹
Absorbance in protein areas, peak position ([4]; untreated SC 1456): 1461.8 cm⁻¹
Absorbance in lipid areas, symmetric CH peak position ([4]; Table II, untreated 2848.3): 2850 cm⁻¹
Absorbance in lipid areas, asymmetric CH peak position ([4]; Table II, untreated 2916.5): 2920 cm⁻¹
Length of the 70% line, symmetric CH ([4]; Table III, untreated 8.6): 11.4 cm⁻¹
Length of the 70% line, asymmetric CH ([4]; Table III, untreated 17.5): 27.2 cm⁻¹
Asymm CH ([4]; Table VII, exposed SC): 2916.5 cm⁻¹
Symm CH ([4]; Table VII, exposed SC): 2848.3 cm⁻¹
Symm 70% line ([4]; Table VII, normal SC 8.6): 11.4 cm⁻¹
Asymm 70% line ([4]; Table VII, normal SC 17.5): 27.2 cm⁻¹
change in lipid structure / CH stretch bands of stratum corneum ([4]; in words, listed as Azone™): lengthening of both symmetric and asymmetric CH stretch lines but did not change their peak positions and 70% line lengthened
change in protein FTIR areas of stratum corneum ([4]; in words, listed as Azone™): did not change protein FTIR areas; also recorded: did not significantly effect the protein
change in protein FTIR areas of stratum corneum ([4]; in words, listed as azone): No significant changes occurred in the protein areas

CC(=O)[C@H]1CC[C@H]2[C@@H]3CCC4=CC(=O)CC[C@]4(C)[C@H]3CC[C@]12C [Progesterone]
E (enhancement) [2, 7]: 1.25
J (flux) [2, 7]: 2.88 × 10^-7 mg/cm^2 /sec
E (enhancement) [2, 8]: 1.50
J (flux) [2, 8]: 3.51 × 10^-7 mg/cm^2 /sec
E (enhancement) [2, 9]: 1.17
J (flux) [2, 9]: 2.73 × 10^-7 mg/cm^2 /sec
E (enhancement) [2, 10]: 1.17
P (permeability) [2, 10]: 0.289 ×10⁻⁶ cm/s and 3.61 ×10⁻⁶ cm/s
J (flux) ([3]; pH 5.9): 2.30 × 10^-7 mg/cm^2 /sec
J (flux) ([3]; pH 6.6): 2.34 × 10^-7 mg/cm^2 /sec
J (flux) ([3]; pH 7.4): 2.34 × 10^-7 mg/cm^2 /sec and 2.92 × 10^-6 mg/cm^2 /sec
J (flux) ([3]; pH 8.0): 3.09 × 10^-6 mg/cm^2 /sec

CC[N+](CC)(CC)CC.[Br-] [TEAB, tetraethylammonium bromide]
Papp (in vitro): 0.00495 ×10⁻⁶ cm/s
P (permeability) (mouse): 0.0254 ×10⁻⁶ cm/s

carbonic anhydrase: Carbonic anhydrase, MW 29,000
fragmentation of diffused polypeptide [5]: fractionated during the permeation process
breakdown of molecule on exposure to papain treated skin without diffusion ([5]; donor solution of the diffusion cell): no change or breakdown of the molecule

dioxolane [2% dioxolane]
P (permeability) [6]: 0.00521 ×10⁻⁶ cm/s

insulin: Insulin (Regular, Bovine), MW 6,000
fragmentation of diffused polypeptide [5]: determination of molecular fragmentation due to the permeation would be very difficult if not impossible

lysozyme: Lysozyme, MW 14,400
fragmentation of diffused polypeptide [5]: no significant difference in molecular size. The molecule remained intact and did not break apart

B1: Sigma papain: papain from Sigma Chemical (protein, UniProt P00784 134-345, looked up)
Papain: IPEYVDWRQKGAVTPVKNQGSCGSCWAFSAVVTIEGIIKIRTGNLNEYSEQELLDCDRRSYGCNGGYPWSALQLVAQYGIHYRNTYPYEGVQRYCRSREKGPYAAKTDGVRQVQPYNEGALLYSIANQPVSVVLEAAGKDFQLYRGGIFVGPCGNKVDHAVAAVGYGPNYILIKNSWGTGWGENGYIRIKRGTGNSYGVCGLYTSSFYPVKN
J (flux) [11]: 6.87 × 10^-4 mg/cm^2 /sec
P (permeability) [11]: 0.85 ×10⁻⁶ cm/s
J (flux) [12]: 1.46 × 10^-3 mg/cm^2 /sec
P (permeability) [12]: 1.81 ×10⁻⁶ cm/s

B2: Allergan papain: papain contained in a contact lens cleaning product (tablets for dissolution in water) wherein activators are included (protein, UniProt P00784 134-345, looked up)
Papain: B1 Papain
modifications: contact lens cleaning tablet with activators
J (flux) [13]: 1.04 × 10^-3 mg/cm^2 /sec
P (permeability) [13]: 1.29 ×10⁻⁶ cm/s
